Values after ≈ are worked out from the molar mass of the structure shown. Read-outs that look alike come from different tables or passages of the source. Numbered stars: 1 amine (or outer) side, 2 acyl side, 3 side chain; on linkers, the order of the positions; unused ones are H or OH. Square brackets hold non-standard residues; d marks the D form. Peptide text beside a SMILES is read from it. * marks the point of attachment. ξ: configuration not given here. X1 = NCC(O)CCC(N[*:1])C(=O)[*:2]; ΔZArg = N=C(N)NCC/C=C(\N)C(=O)O; ξDab(3-OH) = NCC(O)C(N)C(=O)O; Orn = NCCC[CH](N)C(=O)O; NH(CH2)4NH2 = NCCCCN*
Columns and labels:
[1] = system: Stenotrophomonas maltophilia
Pseudomonas aeruginosa = details: for Antibacterial activity (MIC): unit not given in table (MICs in μg/mL)
[2] = system: Staphylococcus epidermidis
Klebsiella pneumoniae = details: K. pneumoniae
Proprionibacterium acnes = details: P. acnes ATCC 6919
P. aeruginosa ATCC 27853 = assay: Acute lethal infection in mice; type: in vivo, BALB/c mice; details: mice, P. aeruginosa 8.6 log10 CFU/mouse IP, n=6
Procedure: Female BALB/c mice ordered from Harlan Laboratories (Indianapolis, Ind.) weighing 19-21 g were used in experiments of acute lethal infection. Mice were fully immunocompetent. Infection was induced by inoculating intraperitoneally in mice a bacterial suspension of P. aeruginosa ATCC 27853. The bacterial challenges (8.6 log10 CFU/mouse) were given suspended in 0.1 mL sterile saline. Treatments were administered once 1 hour after challenge via IV injection (Tobramycin was administered via IP injection immediately after challenge) (Table 13). Mortality was tracked out to 2 days post challenge. Animals that remained surviving at the end of the study were humanely euthanized.

S. aureus ATCC 13709 [3] = assay: MBC in presence of human serum; type: cell-based, Staphylococcus aureus; details: for MBC S. aureus ATCC 13709: unit not given (Table 10: μg/mL)
Procedure: (§1) Minimal bactericidal concentrations (MBCs) were established by extending the MIC procedure to the evaluation of bactericidal activity. After 24 hours, 10 μL were drawn from the wells, serially diluted and then spotted onto suitable agar plates. The plates were incubated at 37° C. overnight. […] All the experiments were done in triplicate.
MBCs were also determined in presence of 50% and 95% (v/v) of human serum to assess protein binding.

S. aureus ATCC 13709 [4] = type: cell-based, Staphylococcus aureus; details: ATCC 13709, 24 h
Procedure: as §1

[5] = Odilomycin A 7.5 mg/kg IV at 1 hr
[6] = Odilomycin A 15 mg/kg IV at 1 hr

SMILES: N=C(N)NCC/C=C(\NC(=O)C(CCC(O)CN)NC(=O)C(Cc1cnc[nH]1)NC(=O)C1CCCN1C(=O)C(CCCN)NC(=O)CNC(=O)C(NC(=O)C(NC(=O)C(N)CCCCN)C(O)CN)C(O)CN)C(=O)NC(CCC(O)CN)C(=O)NCCCCN (stereo not drawn) [Odilomycin A, Lys-(3-hydroxy-2,4-diaminobutanoic acid)-(3-hydroxy-2,4-diaminobutanoic acid)-Gly-Ornithine-Pro-His-(5-hydroxylysine)-(2,3-dehydroarginine)-(5-hydroxylysine)-(1,4-diaminobutane)] (H-K[ξDab(3-OH)][ξDab(3-OH)]G[Orn]PH[X1][ΔZArg][X1]-{NH(CH2)4NH2}; configuration not given here)
- MIC (Moraxella catarrhalis): 1.56 µg/mL (≈ 1.2 µM)
- MICs (Moraxella catarrhalis): < 10 µg/mL
- MIC [1]: 6.25 µg/mL (≈ 4.82 µM)
- MICs [1]: < 10 µg/mL
- MIC (Pseudomonas aeruginosa): 3.12 µg/mL (≈ 2.41 µM)
- MICs (Pseudomonas aeruginosa): < 10 µg/mL
- MIC (Pseudomonas aeruginosa; P. aeruginosa ATCC 27853): 3.13 µg/mL (≈ 2.41 µM)
- Antibacterial activity (MIC) (Pseudomonas aeruginosa; P. aeruginosa multiresistant clinical isolate 5618): 6.25
- Antibacterial activity (MIC) (Pseudomonas aeruginosa; P. aeruginosa multiresistant clinical isolate 35170): >50
- Antibacterial activity (MIC) (Pseudomonas aeruginosa; P. aeruginosa multiresistant clinical isolate 42162): 25
- Antibacterial activity (MIC) (Pseudomonas aeruginosa; P. aeruginosa multiresistant clinical isolate 401681): 25
- Antibacterial activity (MIC) (Pseudomonas aeruginosa; P. aeruginosa multiresistant clinical isolate 512232): 3.12
- MIC [2]: <0.20 µg/mL
- MICs [2]: < 1 µg/mL
- MICs (Escherichia coli): < 10 µg/mL
- MIC (Escherichia coli; E. coli CTX-M14 clinical isolate AEC7): 3.13 µg/mL (≈ 2.41 µM)
- MIC (Escherichia coli; E. coli CTX-M15 clinical isolate MEC23): 3.13 µg/mL (≈ 2.41 µM)
- antibacterial activity (Klebsiella pneumoniae): strong
- MIC (Haemophilus influenzae): 12.5 µg/mL (≈ 9.64 µM)
- MIC (Acinetobacter baumannii): 6.25 µg/mL (≈ 4.82 µM)
- MICs (Acinetobacter baumannii): < 10 µg/mL
- MIC (Proprionibacterium acnes): 3.13 µg/mL (≈ 2.41 µM)
- MIC (Enterobacter cloacae): 1.56 µg/mL (≈ 1.2 µM)
- MICs (Enterobacter cloacae): < 10 µg/mL
- MIC (Pasteurella multocida): 25.0 µg/mL (≈ 19.3 µM)
- MIC (Klebsiella oxytoca): 0.39 µg/mL (≈ 0.301 µM)
- antibacterial activity (Klebsiella oxytoca; K. oxytoca): strong
- MIC (Bacillus subtilis): <0.20 µg/mL
- MICs (Bacillus subtilis): < 1 µg/mL
- MIC (Enterococcus faecium): 25.0 µg/mL (≈ 19.3 µM)
- antibacterial activity (Enterococcus faecium; E. faecium): Weak or no antibacterial activity
- Animal deaths Day 0 (P. aeruginosa ATCC 27853; [5]): 0
- Animal deaths Day 1 (P. aeruginosa ATCC 27853; [5]): 4
- Animal deaths Day 2 (P. aeruginosa ATCC 27853; [5]): 1
- Animal deaths Day 0 (P. aeruginosa ATCC 27853; [6]): 0
- Animal deaths Day 2 (P. aeruginosa ATCC 27853; [6]): 4
- effect of serum proteins on antibacterial activity (S. aureus ATCC 13709 [3]; 50% and 95% (v/v) human serum, S. aureus ATCC 13709): weakly affected
- MBC S. aureus ATCC 13709 (S. aureus ATCC 13709 [3]; Serum 0 % (v/v)): 0.78
- MBC S. aureus ATCC 13709 (S. aureus ATCC 13709 [3]; human serum 50 % (v/v)): 1.56
- MBC S. aureus ATCC 13709 (S. aureus ATCC 13709 [3]; human serum 95 % (v/v)): 1.56
- MBC (S. aureus ATCC 13709 [4]): 0.78 µg/mL (≈ 0.602 µM)
